Entries after “also recorded” stand apart in the source; their conditions may differ. Like-named read-outs stand apart in the source and are kept apart here.
How the values were obtained:
[1] = biological target: T1, recombinant PfGSK-3 (Plasmodium falciparum, UniProt O77344); assay: PfGSK-3 inhibition assay (KinaseGlo Plus); format: biochemical; details: tested up to a concentration of 10 µM, kinase Glo assay
T1 construct: 6xHis (N, cleaved yes); GST (N, cleaved yes); made in house; host or cells: E. coli BL21 (DE3)-RIL
T1 sequence (O77344 entry or part of it): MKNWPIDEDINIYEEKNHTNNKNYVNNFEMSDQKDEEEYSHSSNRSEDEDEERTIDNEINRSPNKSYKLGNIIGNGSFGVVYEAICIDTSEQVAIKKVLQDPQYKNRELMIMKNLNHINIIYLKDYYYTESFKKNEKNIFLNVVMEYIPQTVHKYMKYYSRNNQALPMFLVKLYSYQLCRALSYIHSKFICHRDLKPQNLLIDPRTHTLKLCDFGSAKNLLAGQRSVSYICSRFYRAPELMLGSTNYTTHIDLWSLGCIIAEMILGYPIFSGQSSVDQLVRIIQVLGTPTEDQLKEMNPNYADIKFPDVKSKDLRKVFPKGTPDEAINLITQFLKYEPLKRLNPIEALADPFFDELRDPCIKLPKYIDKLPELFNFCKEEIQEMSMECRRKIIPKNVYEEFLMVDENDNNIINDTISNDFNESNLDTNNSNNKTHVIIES
Method: PfGSK-3 was produced as published before. In brief, PfGSK-3 was cloned into pOPIN J expression vector [57] which was transformed into E. coli BL21 (DE3)-RIL. Expression of recombinant 6xHis-GST-PfGSK-3 was induced by incubation with isopropyl β-D-1-thiogalactopyranoside (IPTG). The recombinant protein was purified by affinity chromatography using glutathione resin and elution by digestion with human rhinovirus 3C protease.
The PfGSK-3 inhibition assay was carried out using the commercial KinaseGlo Plus assay (KinaseGlo Plus, Promega) as described before. In brief, the kinase and a corresponding substrate (GS-1 substrate, Promega) in the presence of ATP were used to perform substrate phosphorylation. Subsequently, luminescence is generated utilizing luciferase which is a component of the KinaseGlo Reagent. The intensity of the luminescence signal corresponds to the amount of remaining ATP in the reaction mixture. For the investigation, potential kinase inhibitors were dissolved in DMSO and were added directly to the kinase reaction. The final DMSO concentration in the kinase reaction was at most 1%. As the negative control, 1% DMSO without test compound was measured. A control reaction without kinase was measured simultaneously. The difference between kinase reaction and control reaction corresponds to the kinase activity.

[2] = system: P. falciparum (NF54-luc strain) erythrocytic stages; assay: Luciferase-based viability screening for antiplasmodial activity; format: cell-based, Plasmodium falciparum; details: Plasmodium falciparum; for inhibition at 3 µM: read-out: Inhibition at 3 µM [%]
Method: All synthesized new bisindolylcyclobutenediones 2a–2ar and the related bisindolylmaleimide 8 [37] were screened for inhibition of erythrocytic stages of Plasmodium falciparum employing a bioluminescence-based viability assay on transgenic parasites that constitutively express luciferase (PfNF54-luc). Initially, the compounds were evaluated in single-dose test runs (3 µM). If >20% viability inhibition was observed, dose-response curves were generated and IC50 values were calculated (Table 1). […] The bisindolylmaleimide 8 [37] inhibited the parasites in a single-digit micromolar concentration, similar to many of the bisindolylcyclobutenediones in the study. Because the bisindolylcyclobutenediones 2 display a higher degree of structural novelty, only this compound class was further pursued for its antiplasmodial activity. […] These structural features were considered unfavorable for orientations as illustrated in Figure 2 with 2a and Pfmap-2, PfPK5, PfCDPK2, Pflammer, and PfPK7, respectively. However, a structure generated for 2a in PfGSK-3 in which the indole units are oriented perpendicular to each other (Figure 2a) was considered compatible with the indicated substitution pattern. Consequently, the potent antiplasmodial derivatives 2k, 2ad, and 2ae were tested in a kinase Glo assay for inhibition of recombinant PfGSK-3. […] For the compounds with particularly potent antiplasmodial activity, cytotoxicity was also determined using the human cell line THP-1 to assess selectivity with respect to parasite cells (Table 2).
Screening for the antiplasmodial activity of test compounds was performed by luciferase-based viability assays as reported previously. In brief, asexual erythrocytic stages of transgenic NF54-luc P. falciparum were cultured as described elsewhere. Parasite cultures with parasitaemia of 0.5–1% were incubated in the presence of 3 µM test compounds for 48 h. After the subsequent addition of Bright-Glo substrate solution (Promega, Madison, WI), the resulting luminescence was measured. Untreated cultures (0.01% DMSO) were used as negative controls. Experiments were performed in triplicate and were repeated as a whole at least twice. Blasticidin (Sigma-Aldrich, St. Louis, MO, USA) was included as a positive control.

[3] = system: human THP-1 cell line; assay: Cytotoxicity assay on human THP-1 cell line (Alamar Blue); format: cell-based; details: for Selectivity Index (SI) = IC50, THP-1/IC50, Pf: THP-1 versus P. falciparum NF54-luc; for IC50: human THP-1 cell line, 48 h, Alamar Blue
Method: The cytotoxicity of selected antiplasmodial bisindolylcyclobutenediones was determined against THP-1 cells following a protocol described previously. In brief, THP-1 cells were incubated with test compounds in serial compound dilutions in the presence of 0.01% DMSO at 37 °C. After 48 h, Alamar Blue was added, and after 4 h the fluorescence was read (λex = 544 nm, λem = 590 nm) using a microplate reader. THP-1 cells in wells containing medium plus 0.01% DMSO served as negative controls. Experiments were performed in triplicate and were repeated as a whole at least twice.

[4] = NF54, 48 h, read-out: IC50 [µM], concentration for 50% inhibition of P. falciparum (NF54-luc strain) erythrocytic stages

COc1ccc2[nH]cc(-c3c(-c4c[nH]c5ccc(Br)cc45)c(=O)c3=O)c2c1 [2ad, 3-(5-Bromo-1H-indol-3-yl)-4-(5-methoxy-1H-indol-3-yl)cyclobut-3-ene-1,2-dione]
Inhibition of recombinant PfGSK-3 [1]: failed to show kinase inhibitory activity; also recorded: inactive; also recorded: did not inhibit PfGSK-3 | IC50 [2, 4]: 0.47 µM | inhibition at 3 µM ([2]; NF54, 48 h): 98.8 ± 0.7% | IC50 ([2]; NF54, read-out: IC50, Pf [µM]): 0.47 µM | Selectivity Index (SI) = IC50, THP-1/IC50, Pf [3]: 30 | IC50 [3]: 14100 nM

COc1ccc2[nH]cc(-c3c(-c4c[nH]c5ccc(I)cc45)c(=O)c3=O)c2c1 [2ae, 3-(5-Iodo-1H-indol-3-yl)-4-(5-methoxy-1H-indol-3-yl)cyclobut-3-en-1,2-dione]
Inhibition of recombinant PfGSK-3 [1]: failed to show kinase inhibitory activity; also recorded: inactive; also recorded: did not inhibit PfGSK-3 | IC50 [2, 4]: 0.64 µM | IC50 ([2]; NF54, read-out: IC50, Pf [µM]): 0.64 µM | Selectivity Index (SI) = IC50, THP-1/IC50, Pf [3]: 23 | IC50 [3]: 14500 nM

CN(C)CCCn1cc(-c2c(-c3c[nH]c4ccccc34)c(=O)c2=O)c2ccccc21 [2k, 3-{1-[3-(Dimethylamino)propyl]-1H-indol-3-yl}-4-(1H-indol-3-yl)cyclobut-3-ene-1,2-dione]
Inhibition of recombinant PfGSK-3 [1]: failed to show kinase inhibitory activity; also recorded: inactive; also recorded: did not inhibit PfGSK-3 | IC50 [2, 4]: 0.376 µM | inhibition at 3 µM ([2]; NF54, 48 h): 98.1 ± 1.8% | IC50 ([2]; NF54, read-out: IC50, Pf [µM]): 0.38 µM | Selectivity Index (SI) = IC50, THP-1/IC50, Pf [3]: 34 | IC50 [3]: 12800 nM

O=c1c(-c2c[nH]c3ccccc23)c(-c2c[nH]c3ccc(I)cc23)c1=O [2r, 3-(1H-Indol-3-yl)-4-(5-iodo-1H-indol-3-yl)cyclobut-3-ene-1,2-dione]
IC50 [2, 4]: 0.915 µM | IC50 ([2]; NF54, read-out: IC50, Pf [µM]): 0.92 µM | Selectivity Index (SI) = IC50, THP-1/IC50, Pf [3]: 7.9 | IC50 [3]: 7250 nM

Cn1cc(-c2c(-c3c(-c4ccccc4)[nH]c4ccccc34)c(=O)c2=O)c2ccccc21 [2u, 3-(1-Methyl-1H-indol-3-yl)-4-(2-phenyl-1H-indol-3-yl)cyclobut-3-ene-1,2-dione]
IC50 [2, 4]: 1.72 µM | IC50 ([2]; NF54, read-out: IC50, Pf [µM]): 1.72 µM | Selectivity Index (SI) = IC50, THP-1/IC50, Pf [3]: 1.2 | IC50 [3]: 2100 nM

Cc1[nH]c2ccccc2c1-c1c(-c2cn(C)c3ccccc23)c(=O)c1=O [2y, 3-(1-Methyl-1H-indol-3-yl)-4-(2-methyl-1H-indol-3-yl)cyclobut-3-ene-1,2-dione]
IC50 [2, 4]: 2.67 µM | IC50 ([2]; NF54, read-out: IC50, Pf [µM]): 2.67 µM | Selectivity Index (SI) = IC50, THP-1/IC50, Pf [3]: 3.1 | IC50 [3]: 8400 nM

Source: paper PMC8402075, “Synthesis and Antiplasmodial Activity of Bisindolylcyclobutenediones” (Molecules, 2021)
